Measurements: ChEMBL document CHEMBL1130708, “Cytotoxic cycloartane-type triterpenes from Combretum quadrangulare” (1998)

Assay: Compound was tested for cytotoxic activity against murine colon 26-L5 carcinoma cells
Assay type: functional
Conditions: Mus musculus; read-out: ED50 (the source's name)

COC(=O)[C@]1(C)[C@@H](O)C[C@H](O)[C@]23C[C@]24CC[C@]2(C)[C@@H]([C@H](C=O)C/C=C/C(C)(C)O)CC[C@@]2(C)[C@@H]4CC[C@@H]13
EC50: 43.8 µM

C=C(CC[C@@H](C)[C@H]1CC[C@@]2(C)[C@@H]3CC[C@H]4[C@](C)(C(=O)O)[C@@H](O)C[C@H](OC(C)=O)[C@@]45C[C@@]35CC[C@]12C)C(C)C
EC50: 57.6 µM

C=C(C)[C@@H]1CC[C@H]([C@H]2CC[C@@]3(C)[C@@H]4CC[C@H]5[C@](C)(C(=O)OC)[C@@H](O)C[C@H](O)[C@@]56C[C@@]46CC[C@]23C)[C@@H](OC)O1
EC50: 18.1 µM

C=C(CC[C@@H](C)[C@H]1CC[C@@]2(C)[C@@H]3CC[C@H]4[C@](C)(C(=O)O)[C@@H](O)C[C@H](O)[C@@]45C[C@@]35CC[C@]12C)C(C)C
EC50: 49.6 µM

C=C(CC[C@@H](C)[C@H]1CC[C@@]2(C)[C@@H]3CC[C@H]4[C@](C)(C(=O)OC)[C@@H](OC(C)=O)C[C@@H]5O[C@H](C[C@]12C)[C@]31C[C@]541)C(C)C
EC50: 77.8 µM

C=C(CC[C@@H](C)[C@H]1CC[C@@]2(C)[C@@H]3CC[C@H]4[C@](C)(C(=O)O)[C@@H](O)CC[C@@]45C[C@@]35CC[C@]12C)C(C)C
EC50: 62.4 µM

COC(=O)[C@]1(C)[C@@H](O)C[C@H](O)[C@]23C[C@]24CC[C@]2(C)[C@@H]([C@H](C=O)C/C=C/C(C)(C)OO)CC[C@@]2(C)[C@@H]4CC[C@@H]13
EC50: 9.54 µM

C=C(CC[C@@H](C)[C@H]1CC[C@@]2(C)[C@@H]3CC[C@H]4[C@](C)(C(=O)O)[C@@H](O)CC(=O)[C@@]45C[C@@]35CC[C@]12C)C(C)C
EC50: 58.6 µM

C=C(CC[C@@H](C)[C@H]1CC[C@@]2(C)[C@@H]3CC[C@H]4[C@](C)(C(=O)O)[C@@H](OC(C)=O)C[C@H](OC(C)=O)[C@@]45C[C@@]35CC[C@]12C)C(C)C
EC50: 52.5 µM

C=C(CC[C@@H](C)[C@H]1CC[C@@]2(C)[C@@H]3CC[C@H]4[C@](C)(C(=O)OC)[C@@H](O)C[C@@H]5O[C@H](C[C@]12C)[C@]31C[C@]541)C(C)C
EC50: 5.42 µM
